According to ChEMBL document CHEMBL4673313, “Small-Molecule Inhibitors Directly Targeting KRAS as Anticancer Therapeutics” (J Med Chem, 2020):
pEC50, pIC50, pKd: −log10 of the molar value.

Columns and labels:
NCI-H358 = experiment: Antiproliferative activity against human NCI-H358 cells incubated for 14 days by alamar blue dye based assay; assay type: functional, cell-based; settings: NCI-H358, 336 h
GTPase KRas [1] = target: T1, GTPase KRas (Homo sapiens, UniProt P01116); experiment: Inhibition of GDP-bound KRas activation (unknown origin) expressed in Escherichia coli Rosetta2 (DE3) cells assessed as reduction in SOS-catalyzed nucleotide exchange at 1 mM in presence of BODIPY-GTP by fluorescence method relative to control
[2] = tested on: GTPase KRas (Homo sapiens), P01116 [G12C]; experiment: Binding affinity to human hexahistidine-tagged KRas G12C mutant (1 to 169 residues) expressed in Escherichia coli(BL21 (DE3)) assessed as rate constant for covalent modification by measuring Kobs/[I] at 10 uM by liquid chromatography-electrospray mass spectrometry analysis
DLD-1 [3] = experiment: Antiproliferative activity against human DLD-1 cells incubated for 72 hrs by CellTitreGlo assay; assay type: functional, cell-based; settings: DLD-1, 72 h
[4] = Binding affinity to GppNHp-bound N-terminal His6-tagged KRAS4B G12D mutant (1 to 169 residues) (unknown origin) by microscale thermophoresis; design: species or system Homo sapiens
[5] = Binding affinity to GppNHp-bound N-terminal His6-tagged KRAS4B G12D mutant (1 to 169 residues) (unknown origin) by isothermal titration calorimetry; design: species or system Homo sapiens
[6] = Binding affinity to GppNHp-bound N-terminal His6-tagged KRAS4B G12D mutant (1 to 169 residues) (unknown origin) at 10 uM by 19F NMR Spectroscopy; design: species or system Homo sapiens
DLD-1 [7] = experiment: Antiproliferative activity against human DLD-1 cells; assay type: functional, cell-based
[8] = tested on: GTPase KRas (Homo sapiens), P01116 [G12C]; experiment: Covalent binding affinity to GDP-loaded hexahistidine-tagged KRas G12C mutant (1 to 169 residues) (unknown origin) expressed in Escherichia coli assessed as rate constant by liquid chromatography-electrospray mass spectrometry analysis
[9] = Oral bioavailability in BALB/c mouse at 10 mg/kg by LC-MS/MS analysis; assay type: ADME, organism-based; settings: in vivo
A549 = experiment: Antiproliferative activity against human A549 cells incubated for 3 days by CellTiter-Glo assay; assay type: functional, cell-based; settings: A549, 72 h
GTPase KRas [10] = target: T1, GTPase KRas; experiment: Inhibition of KRas activation in HEK 293T-REx Flp-In cells harboring Venus-RBD-CRD/mCherry-CAAX assessed as reduction in Venus-RBD-CRD recruitment to plasma membrane by inverted confocal microscopy; design: species or system Flp-In-T-REx-293
GTPase KRas [11] = target: GTPase KRas (Homo sapiens, UniProt P01116, G12D); experiment: Binding affinity to 15N-labelled GDP bound KRas G12D mutant ( 1 to 169 residues) (unknown origin) expressed in Escherichia coli Rosetta 2 (DE3) cells by 1H/15N- HSQC spectroscopy
DLD-1 [12] = experiment: Antiproliferative activity against human DLD-1 cells harboring KRAS G13D mutant incubated for 72 hrs by CellTitreGlo assay; assay type: functional, cell-based; settings: DLD-1, 72 h

In the case of `Cn1cnc(Cn2ccc3ccc(CNCc4[nH]c5ccccc5c4[C@H]4NC(=O)c5ccc(O)cc54)cc32)c1`, the pIC50 (NCI-H358) was 5.17.

Compound `CC[C@H](C)[C@H](N)C(=O)Nc1ccc2nc(Cc3c[nH]c4ccccc34)[nH]c2c1` has an inhibition (GTPase KRas [1]) of 78%.

`C=CC(=O)N1CCN(c2ncnc3c(F)c(-c4c(O)cccc4F)c(Cl)cc23)CC1` (atropisomer S) gave a K [2] of 1100 M⁻¹ s⁻¹.

With `C=CC(=O)N1CCN(c2ncnc3cc(-c4ccccc4O)c(Cl)cc23)CC1` the K [2] was 12 M⁻¹ s⁻¹.

Work on `COc1cccc(-c2ccc(Nc3ccc(CN(C)C)cc3)c(OC)c2F)c1` yielded a pIC50 (DLD-1 [3]) of 5.35.

With `NC1(C(=O)NCCCn2cc(-c3ccc(OC(F)(F)F)cc3)c3cc(CN4CCN(Cc5c(Cl)cccc5Cl)CC4)ccc32)CCNCC1` the pKd [4] was 5.05, the pKd [5] was 5.05 and the pKd [6] was 5.05. The pIC50 (DLD-1 [7]) was 5.06.

With `C=CC(=O)N1CC(N2CCN(C(=O)CNc3cc(C4(C)CC4)c(Cl)cc3O)CC2)C1` the K [8] was 76 M⁻¹ s⁻¹, the bioavailability [9] was > 60% and the K [2] was 140 M⁻¹ s⁻¹.

For `CCCC(CCC)COC(=O)[C@@H](C)NP(=O)(OCCNC(=O)CCl)OP(=O)(O)OC[C@H]1O[C@@H](n2cnc3c(=O)[nH]c(N)nc32)[C@H](O)[C@@H]1O` (stereo partly specified), the pEC50 (A549) was 4.36.

With `Cc1[nH]c2cc(Cl)cc(Cl)c2c1CCN` the pEC50 (GTPase KRas [10]) was 4.80.

In the case of `c1ccc2c(Cc3nc4ccncc4[nH]3)c[nH]c2c1`, the pKd (GTPase KRas [11]) was 2.89.

Compound `COc1nc(-c2cccc3c2OCCO3)ccc1Nc1ccc(CN(C)C)cc1` has a pIC50 (DLD-1 [12]) of 5.10.
